Results as given in US7815900B1, “Use of C3-C5 monosaccharides to protect keratinous fibers” (L'Oréal S.A., priority 2000, dated 2010).

What was measured:
[1] = DSC doublet peak area (α-structure) of hair after heat cycles; details: for Doublet Peak Area: 0.06 M solutions
Method: (§1) Normal blonde hair was bleached with Clairol Basic White Bleach (40 volume H2O2) for 20 min at standard room temperature and humidity. The bleached swatches were rinsed with tap water, and soaked in an excess of deionized water for 2 hours. The swatches were air-dried and equilibrated for 48 hours prior to further treatment. Some of the bleached swatches were subsequently “permed” using a Reforming Lotion (10% TGA, pH 8.8, 20 minutes) and then neutralized with 2% H2O2, pH 3 (5 minutes). The bleached/permed swatches were rinsed with tap water, and soaked in an excess of deionized water for 2 hours. The swatches were air-dried and equilibrated for 48 hours prior to further treatment. The swatches that were heat treated were treated with 0.06M solutions of hexoses and pentoses for 10 min at 45° C. and then were heated for 12 cycles. The swatches were rinsed after the heat application.
(§2) In the DSC tests, finely cut hair (4-5 mg) was crimped in an aluminum pan that was punctured prior to each run. The samples were heated from 25° C. to 300° C., at a scanning rate of 20° C./min, with 5 runs per treatment. The results were averaged.
(§3) Normal blonde hair was bleached with Clairol Basic White Bleach, 40 volume H2O2, for 20 min at room temperature. One batch of normal and bleached hair swatches underwent five heat cycles at 130° C., where one treatment cycle involved the following steps (1-4):
(§4) 1. The swatches were treated with 0.06 M solutions of monosaccharides in deionized water (about 1 wt %) for 10 min at 45° C.
(§5) 2. The treated swatches were blow-dried for 1 min.
(§6) 3. The heat was applied for 1 min in the form of a flat hair iron Windmere “Solid Gold” (130° C.).
(§7) 4. The swatches were rinsed and blot-dried with a paper-towel.
(§8) The treatment solutions included four pentoses (D-xylose, D-arabinose, D-lyxose, and D-ribose, 1% each) and one hexose (1.2% D-glucose). Deionized water was used as a control treatment. After the heat experiment, the hair was rinsed in water, air-dried, and equilibrated for 24 hours in the humidity chamber at 25° C. and 50% RH prior to further testing. These swatches are referred to as treated at 130° C.
(§9) A second batch of normal and bleached hair swatches were treated in a similar way and blow-dried, without application of the hot iron. The treatment was also repeated 5 times, the swatches from the second batch are referred to as treated at 45° C.
Normal blonde hair was divided in two batches. The hair from the first batch was bleached with Clairol Basic White Bleach, 40 volume H2O2, for 20 min at room temperature and humidity. The hair from the second batch was first bleached as above, and then permed: Reforming lotion-10% Thioglycolic acid, pH 8.8, 20 min; neutralizer-2% hydrogen peroxide, 5 min. The oxidatively damaged hair was equilibrated for 24 hours prior to further testing.
(§10) Both the bleached and the bleached/permed hair were subjected to heat treatment, as in Example 2. The heat treatment experiment involved 12 heat cycles including application of sugar or control solution before each heat application, and rinsing after the heat application. Deionized water was used as a control treatment.
(§11) After the heat experiment, the hair was rinsed in water, air-dried, and equilibrated for 24 h in the humidity chamber at 25° C. and 50% RH prior to further testing. The effect of the hexoses vs. pentoses on the dry tensile strength (INSTRON) and the alpha-structure (doublet peak area, DSC) was tested on the bleached hair (Table 13). The effect of a hexose (D-glucose) vs. a pentose (D-Xylose) on wet tensile strength (DIA-STRON) was tested both on the bleached and the bleached/permed hair (Table 14). Application of 0.06M solutions of pentoses protected the bleached and the bleached/permed hair against thermal damage (α-structure; wet and dry tensile strength).

[2] = as above; details: bleached/permed hair, 12 heat cycles, 0.06 M
Method: Normal blonde hair was bleached with Clairol Basic White Bleach (40 volume H2O2) for 20 min at standard room temperature and humidity. The bleached swatches were rinsed with tap water, and soaked in an excess of deionized water for 2 hours. The swatches were air-dried and equilibrated for 48 hours prior to further treatment. Some of the bleached swatches were subsequently “permed” using a Reforming Lotion (10% TGA, pH 8.8, 20 minutes) and then neutralized with 2% H2O2, pH 3 (5 minutes). The bleached/permed swatches were rinsed with tap water, and soaked in an excess of deionized water for 2 hours. The swatches were air-dried and equilibrated for 48 hours prior to further treatment. The swatches that were heat treated were treated with 0.06M solutions of hexoses and pentoses for 10 min at 45° C. and then were heated for 12 cycles. The swatches were rinsed after the heat application. In the DSC tests, finely cut hair (4-5 mg) was crimped in an aluminum pan that was punctured prior to each run. The samples were heated from 25° C. to 300° C., at a scanning rate of 20° C./min, with 5 runs per treatment. The results were averaged. Normal blonde hair was divided in two batches. The hair from the first batch was bleached with Clairol Basic White Bleach, 40 volume H2O2, for 20 min at room temperature and humidity. The hair from the second batch was first bleached as above, and then permed: Reforming lotion-10% Thioglycolic acid, pH 8.8, 20 min; neutralizer-2% hydrogen peroxide, 5 min. The oxidatively damaged hair was equilibrated for 24 hours prior to further testing. Both the bleached and the bleached/permed hair were subjected to heat treatment, as in Example 2. The heat treatment experiment involved 12 heat cycles including application of sugar or control solution before each heat application, and rinsing after the heat application. Deionized water was used as a control treatment. After the heat experiment, the hair was rinsed in water, air-dried, and equilibrated for 24 h in the humidity chamber at 25° C. and 50% RH prior to further testing. The effect of the hexoses vs. pentoses on the dry tensile strength (INSTRON) and the alpha-structure (doublet peak area, DSC) was tested on the bleached hair (Table 13). The effect of a hexose (D-glucose) vs. a pentose (D-Xylose) on wet tensile strength (DIA-STRON) was tested both on the bleached and the bleached/permed hair (Table 14). Application of 0.06M solutions of pentoses protected the bleached and the bleached/permed hair against thermal damage (α-structure; wet and dry tensile strength).

[3] = Dry tensile strength (Instron) after heat cycles; details: for protection of dry tensile strength, in words: hair treated 5 cycles at 45° C. and at 130° C.
Method: as §1
(§12) Tensile strength was determined using both the Instron (50 dry fibers per tests) and the Dia-Stron (100 wet fibers per test), with the stretching rate of 100 mm/min. The following parameters were determined: Young's Modulus (N/m^2), Work to stretch 25% (J/m^2); Extension to Break (degree of elongation) (%); Work to Break (J/m^2).
as §3, §4, §5, §6, §7, §8, §9, §10, §11

[4] = DSC doublet peak area (α-structure) of hair after heat cycles; details: normal blonde hair
Method: as §1, §2, §3, §4, §5, §6, §7, §8, §9
Normal blonde hair was subjected to 12 heat cycles, as described in Example 2, using the following treatment solutions: 0.1% D-Xylose (pentose), 0.1% D-Erythrose (tetrose), and 0.1% D-Glyceraldehyde (triose). Each of the C3 to C5 monosaccharides was effective in protecting or reducing the damage to the α-structure of the hair, as compared to water treatment (Table 15).
Normal blonde hair was subjected to 12 heat cycles, as described in Example 2, using 0.1 wt % of the pentose amine derivative, D-Lyxosylimine in deionized water.

[5] = Dry tensile strength (Instron) after heat cycles; details: normal blonde hair, 5 heat cycles at 130° C., 0.06 M solutions, n = 50 fibers
Method: as §12, §3, §4, §5, §6, §7, §8, §9

[6] = bleached hair after 12 heat cycles
[7] = bleached hair after 12 heat cycles, 0.06 M solutions, n = 100 fibers
[8] = dry bleached hair, 12 heat cycles, 0.06 M, INSTRON, n = 50 fibers
[9] = 5 heat cycles at 130° C., 0.06 M solutions
[10] = bleached hair, 5 cycles at 45° C.
[11] = bleached hair, 5 heat cycles at 130° C.
[12] = dry, bleached hair, 5 cycles at 45° C., 0.06 M solutions, n = 50 fibers
[13] = 0.1 wt % solutions, 12 heat cycles at 130° C.
[14] = bleached hair, 5 heat cycles at 130° C., 0.06 M solutions, n = 50 fibers

Compound | Doublet Peak Area [1, 6] | Work 25% (Dry) [3, 7] | Extension-Break [3, 8] | Work 25% [3, 8] | Work-Break [3, 8] | Young's Modulus [3, 8] | other results
O=CC[C@H](O)[C@H](O)CO [2-Deoxy-D-ribose] | 9.63 +/− 2.87 J/g hair | 1,032 +/− 163 J/m^2 | 55.35 +/− 7.52% | 1,032 +/− 163 J/m^2 | 2,872 +/− 709 J/m^2 | 5,111 +/− 871 MN/m^2 | protection effect (normalized α-structure peak area), in words ([1]; bleached and bleached/permed hair, 12 heat cycles): protection effect was found; Normalized area ([1]; bleached hair, 12 heat cycles, 0.06 M): 9.63 +/− 2.87 J/g hair; Normalized area [2]: 6.43 +/− 1.87 J/g hair
O=C[C@@H](O)[C@H](O)[C@H](O)CO [D-Arabinose] | – | – | – | – | – | – | Doublet Peak Area [4, 9]: 11.33 +/− 2.30 J/g hair; Doublet Peak Area [1, 10]: 7.78 +/− 1.07 J/g hair; Doublet Peak Area [1, 11]: 8.22 +/− 0.90 J/g hair; Work 25% (Dry) [5]: 1,060 +/− 180 J/m^2; Work 25% [3, 12]: 1,147 +/− 191 J/m^2; protection of dry tensile strength, in words [3]: improved protection both at 45 °C and at 130 °C
O=C[C@H](O)[C@H](O)CO [D-Erythrose] | – | – | – | – | – | – | Doublet Peak Area [4, 13]: 13.20 +/− 7.15 J/g hair
O=C(CO)[C@@H](O)[C@H](O)[C@H](O)CO [D-Fructose] | 6.51 +/− 1.71 J/g hair | 885.0 +/− 161.0 J/m^2 | 59.89 +/− 8.11% | 885 +/− 161 J/m^2 | 2,644 +/− 644 J/m^2 | 4,492 +/− 852 MN/m^2 | –
O=C[C@H](O)[C@@H](O)[C@@H](O)[C@H](O)CO [D-Galactose] | 5.39 +/− 2.29 J/g hair | 945.8 +/− 168.9 J/m^2 | 58.82 +/− 6.21% | 945.8 +/− 168.9 J/m^2 | 2,696 +/− 533 J/m^2 | 4,724 +/− 913 MN/m^2 | –
O=C[C@H](O)CO [D-Glyceraldehyde] | – | – | – | – | – | – | Doublet Peak Area [4, 13]: 13.47 +/− 3.03 J/g hair
O=C[C@@H](O)[C@@H](O)[C@H](O)CO [D-Lyxose] | – | – | – | – | – | – | Doublet Peak Area [4, 9]: 8.35 +/− 0.81 J/g hair; Doublet Peak Area [1, 10]: 8.26 +/− 3.02 J/g hair; Doublet Peak Area [1, 11]: 6.23 +/− 0.59 J/g hair; Work 25% (Dry) [5]: 883.4 +/− 174.2 J/m^2; Work 25% (Dry) [3, 14]: 819.9 +/− 162.7 J/m^2; Work 25% [3, 12]: 1,157 +/− 228 J/m^2; protection of dry tensile strength, in words [3]: better improved protection at 45 °C
O=C[C@@H](O)[C@@H](O)[C@H](O)[C@H](O)CO [D-Mannose] | 5.47 +/− 1.27 J/g hair | 914.9 +/− 122.0 J/m^2 | 57.33 +/− 5.98% | 914.9 +/− 122 J/m^2 | 2,595 +/− 433 J/m^2 | 4,746 +/− 688 MN/m^2 | –
O=C[C@H](O)[C@H](O)[C@H](O)CO [D-Ribose] | – | – | – | – | – | – | Doublet Peak Area [1, 10]: 7.80 +/− 1.87 J/g hair; Doublet Peak Area [1, 11]: 9.27 +/− 2.81 J/g hair; Work 25% (Dry) [3, 14]: 1,064 +/− 171.1 J/m^2; Work 25% [3, 12]: 1,237 +/− 204 J/m^2; protection of dry tensile strength, in words [3]: improved protection both at 45 °C and at 130 °C
C[C@H](O)[C@@H](O)[C@@H](O)[C@H](O)C=O [L-Fucose] | 5.26 +/− 1.59 J/g hair | 838.2 +/− 134.5 J/m^2 | 57.01 +/− 6.18% | 838.2 +/− 134.5 J/m^2 | 2,346 +/− 543 J/m^2 | 4,331 +/− 860 MN/m^2 | –
D-Lyxosylimine | – | – | – | – | – | – | Doublet Peak Area ([4]; 0.1 wt % Lyxosylimine, 12 heat cycles at 130° C.): 11.49 +/− 3.56 J/g hair; protection of the α-structure as compared to water treatment, in words ([4]; 0.1 wt % solutions, 12 heat cycles): protected the α-structure hair
